The values that follow come from patent US8895474B2, “Herbicidally active cyclopentanediones and derivatives thereof, and their use in controlling weeds” (Syngenta Limited, priority 2009, dated 2014).

Common to all, as to format: in vivo
What all share (conditions): 312 h, rate 250 g/ha, evaluated after 13 days, 100=total damage to plant, 0=no damage to plant

For test [1], the system named is Alopecurus myosuroides (ALOMY). Nature of the test: Pre-emergence herbicidal activity, glasshouse pot test. The method, then: (§1) Seeds of a variety of test species were sown in standard soil in pots. After cultivation for one day (pre-emergence) or after 8 days cultivation (post-emergence) under controlled conditions in a glasshouse (at 24/16° C., day/night; 14 hours light; 65% humidity), the plants were sprayed with an aqueous spray solution derived from the formulation of the technical active ingredient in acetone/water (50:50) solution containing 0.5% Tween 20 (polyoxyethelyene sorbitan monolaurate, CAS RN 9005-64-5). The test plants were then grown in a glasshouse under controlled conditions in a glasshouse (at 24/16° C., day/night; 14 hours light; 65% humidity) and watered twice daily. After 13 days for pre and post-emergence, the test was evaluated (100=total damage to plant; 0=no damage to plant). Test Plants: Lolium perenne (LOLPE), Alopecurus myosuroides (ALOMY), Echinochloa crus-galli (ECHCG), and Avena fatua (AVEFA). Pre-Emergence Activity

Test [2] concerns Echinochloa crus-galli (ECHCG). The description is as above. The method, then:
as §1

The test system of test [3] is Avena fatua (AVEFA). The description is as above. The method, then:
as §1

The subject of test [4] is Lolium perenne (LOLPE). The test is described as above. The protocol: as §1
The subject of test [5] is Alopecurus myosuroides (ALOMY). Briefly: Post-emergence herbicidal activity, glasshouse pot test. The method, then:
as §1, with “Post-Emergence” for “Pre-Emergence”

Test [6] relates to Echinochloa crus-galli (ECHCG). The description is as above. The method, then: as §1, with “Post-Emergence” for “Pre-Emergence”
The subject of test [7] is Avena fatua (AVEFA). The description is as above. The protocol:
as §1, with “Post-Emergence” for “Pre-Emergence”

For test [8], the system named is Lolium perenne (LOLPE). Described as above. The protocol:
as §1, with “Post-Emergence” for “Pre-Emergence”

Broadly, the pest or weed control is how far the test organism was held down. The low end stands for a weak effect, the high end for a strong effect. As for `CCc1ccc(Oc2nc3ccccc3s2)cc1C1=C(O)[C@H]2[C@H]3CC[C@H](C3)[C@H]2C1=O` [Compound A-12], the pest or weed control at 250 g/ha in test [1] worked out at 60%; in test [2], 70%; in the test with Avena fatua (AVEFA) [3], 30%; in the test on Lolium perenne (LOLPE) [4] it was 70%; in test [5], 100%; in test [6], 100%. Also, the pest or weed control at 250 g/ha in the test on Avena fatua (AVEFA) [7] worked out at 50%; in the test with Lolium perenne (LOLPE) [8], 70%.
For the molecule `CCc1ccc(Oc2ccc(C(F)(F)F)cn2)cc1C1=C(O)C2C(C1=O)[C@H]1CC[C@@H]2CC1` (some centres unmarked) [Compound A-87], the pest or weed control at 250 g/ha was 80% in test [1]; 100% in test [2]; 30% with Avena fatua (AVEFA) [3]; 90% with Lolium perenne (LOLPE) [4]; 90% in test [5]; 100% in test [6]. The results for the pest or weed control at 250 g/ha with Avena fatua (AVEFA) [7] and in the test with Lolium perenne (LOLPE) [8] were 100% and 90%, respectively.
In the case of `CCc1ccc(Oc2cnc3ccc(Br)cc3n2)cc1C1=C(O)CCC1=O` [Compound A-79], the pest or weed control at 250 g/ha is 40% in test [1]; 90% in test [2]; 20% in the test with Avena fatua (AVEFA) [3]; 70% in the test with Lolium perenne (LOLPE) [4]; 0% in test [5]; 50% in test [6]. Moreover, the pest or weed control at 250 g/ha in the test with Avena fatua (AVEFA) [7] was determined as 0%; in the test on Lolium perenne (LOLPE) [8] it was 20%.
On to `CCc1ccc(Oc2cnc3cc(Cl)ccc3n2)cc1C1=C(O)C2C(C1=O)[C@H]1CC[C@@H]2CC1` (some centres unmarked) [Compound A-13, 2-[5-(6-chloroquinoxalin-2-yloxy)-2-ethylphenyl]hexahydro-4,7-ethanoindene-1,3-dione], for which the pest or weed control at 250 g/ha worked out at 50% in test [1]; 80% in test [2]; 20% in the test on Avena fatua (AVEFA) [3]; 60% in the test on Lolium perenne (LOLPE) [4]; 90% in test [5]; 100% in test [6]. Also, the pest or weed control at 250 g/ha with Avena fatua (AVEFA) [7] was found to be 100%; with Lolium perenne (LOLPE) [8] it was 90%.
Turning to `CCc1ccc(Oc2ncc(Cl)cc2F)cc1C1=C(O)CCC1=O` [Compound A-19], the pest or weed control at 250 g/ha in test [1] is 90%; in test [2] it was 90%; in the test with Avena fatua (AVEFA) [3], 80%; in the test on Lolium perenne (LOLPE) [4], 90%; in test [5] it was 80%; in test [6], 100%. For the same molecule, the values for the pest or weed control at 250 g/ha with Avena fatua (AVEFA) [7] and with Lolium perenne (LOLPE) [8] were 60% and 50%, respectively.
As for `CCc1ccc(Oc2ccc(C(F)(F)F)c(C#N)c2)cc1C1=C(O)CCC1=O` [Compound A-70], the pest or weed control at 250 g/ha came out at 0% in test [1]; 60% in test [2]; 10% with Avena fatua (AVEFA) [3]; 20% with Lolium perenne (LOLPE) [4]; 0% in test [5]; 60% in test [6]. The values for the pest or weed control at 250 g/ha with Avena fatua (AVEFA) [7] and in the test on Lolium perenne (LOLPE) [8] were 0% and 10%, respectively.
In the case of `CCc1ccc(Oc2cccc(Br)c2)cc1C1=C(O)[C@H]2[C@@H](C1=O)[C@@H]1CC[C@H]2O1` [Compound A-47], the pest or weed control at 250 g/ha is 60% in test [1]; 90% in test [2]; 30% with Avena fatua (AVEFA) [3]; 70% in the test on Lolium perenne (LOLPE) [4]; 60% in test [5]; 90% in test [6]. In addition, the pest or weed control at 250 g/ha was determined as 30% with Avena fatua (AVEFA) [7] and 70% in the test on Lolium perenne (LOLPE) [8].
With `CCc1ccc(Oc2ccc(Cl)c(F)c2)cc1C1=C(O)[C@H]2[C@H]3CC[C@H](C3)[C@H]2C1=O` [Compound A-26], the pest or weed control at 250 g/ha in test [1] was found to be 0%; in test [2] it was 80%; in the test with Avena fatua (AVEFA) [3], 0%; in the test with Lolium perenne (LOLPE) [4] it was 20%; in test [5] it was 60%; in test [6] it was 80%. Further, the pest or weed control at 250 g/ha in the test with Avena fatua (AVEFA) [7] amounted to 80%; in the test with Lolium perenne (LOLPE) [8] it was 30%.
Consider `CCc1ccc(Oc2ccc(Br)cc2F)cc1C1=C(O)CCC1=O` [Compound A-42], for which the pest or weed control at 250 g/ha in test [1] was found to be 0%; in test [2], 30%; in the test with Avena fatua (AVEFA) [3], 0%; in the test on Lolium perenne (LOLPE) [4], 0%; in test [5] it was 0%; in test [6], 70%. Besides, the values for the pest or weed control at 250 g/ha in the test with Avena fatua (AVEFA) [7] and in the test on Lolium perenne (LOLPE) [8] were 0% and 10%, respectively.
As to `CCc1ccc(Oc2ccc(F)cc2)cc1C1=C(O)[C@H]2[C@@H](C1=O)[C@@H]1CC[C@H]2O1` [Compound A-46], the pest or weed control at 250 g/ha in test [1] was found to be 80%; in test [2], 100%; in the test with Avena fatua (AVEFA) [3] it was 60%; in the test on Lolium perenne (LOLPE) [4], 80%; in test [5] it was 80%; in test [6], 100%. In addition, the pest or weed control at 250 g/ha was 60% with Avena fatua (AVEFA) [7] and 80% in the test on Lolium perenne (LOLPE) [8].
With `CCc1ccc(Oc2ncc(Cl)cc2Cl)cc1C1=C(O)C2C(C1=O)[C@H]1CC[C@@H]2CC1` (some centres unmarked) [Compound A-90], the pest or weed control at 250 g/ha in test [1] was determined as 70%; in test [2], 100%; with Avena fatua (AVEFA) [3] it was 70%; with Lolium perenne (LOLPE) [4], 100%; in test [5] it was 90%; in test [6] it was 100%. In addition, the pest or weed control at 250 g/ha in the test on Avena fatua (AVEFA) [7] and in the test with Lolium perenne (LOLPE) [8] was 100% throughout.
Take `CCc1ccc(Oc2ccc(F)cc2)cc1C1=C(O)C2C(C1=O)[C@H]1CC[C@@H]2CC1` (some centres unmarked) [Compound A-30]: the pest or weed control at 250 g/ha stood at 30% in test [1]; 80% in test [2]; 20% with Avena fatua (AVEFA) [3]; 70% with Lolium perenne (LOLPE) [4]; 60% in test [5]; 100% in test [6]. Moreover, the pest or weed control at 250 g/ha is 20% in the test on Avena fatua (AVEFA) [7] and 10% in the test on Lolium perenne (LOLPE) [8].
Take `CCc1ccc(Oc2ccc(Br)cc2)cc1C1=C(O)CCC1=O` [Compound A-37]: the pest or weed control at 250 g/ha in test [1] was found to be 10%; in test [2], 20%; in the test with Avena fatua (AVEFA) [3] it was 0%; in the test on Lolium perenne (LOLPE) [4] it was 10%; in test [5], 20%; in test [6] it was 80%. Moreover, the figures for the pest or weed control at 250 g/ha in the test on Avena fatua (AVEFA) [7] and in the test with Lolium perenne (LOLPE) [8] were 20% and 30%, respectively.
On to `O=C1CCC(O)=C1c1cc(Oc2ccc(Cl)cc2)ccc1C1CC1` [Compound A-54, 2-[5-(4-chlorophenoxy)-2-cyclopropylphenyl]cyclopentane-1,3-dione], for which the pest or weed control at 250 g/ha is 0% in test [1]; 0% in test [2]; 0% with Avena fatua (AVEFA) [3]; 0% in the test on Lolium perenne (LOLPE) [4]; 0% in test [5]; 80% in test [6]. For the same molecule, the values for the pest or weed control at 250 g/ha in the test on Avena fatua (AVEFA) [7] and in the test on Lolium perenne (LOLPE) [8] were 10% and 0%, respectively.
`CCc1ccc(Oc2ccc(Cl)c(F)c2)cc1C1=C(O)C2C(C1=O)[C@H]1CC[C@@H]2CC1` (some centres unmarked) [Compound A-33]: the pest or weed control at 250 g/ha in test [1] is 20%; in test [2] it was 50%; in the test with Avena fatua (AVEFA) [3] it was 0%; with Lolium perenne (LOLPE) [4], 50%; in test [5], 90%; in test [6], 100%. The pest or weed control at 250 g/ha in the test with Avena fatua (AVEFA) [7] is 90%; in the test with Lolium perenne (LOLPE) [8] it was 0%.
With `CCc1ccc(Oc2cnc3cc(Cl)ccc3n2)cc1C1=C(O)[C@H]2[C@H]3CC[C@H](C3)[C@H]2C1=O` [Compound A-10, meso-(3aS,4S,7R,7aR)-2-[5-(6-chloroquinoxalin-2-yloxy)-2-ethylphenyl]hexahydro-4,7-methanoindene-1,3-dione], the pest or weed control at 250 g/ha in test [1] was 40%; in test [2] it was 60%; in the test with Avena fatua (AVEFA) [3], 20%; with Lolium perenne (LOLPE) [4], 30%; in test [5] it was 90%; in test [6], 90%. The pest or weed control at 250 g/ha in the test with Avena fatua (AVEFA) [7] was found to be 100%; in the test with Lolium perenne (LOLPE) [8] it was 90%.
